Results published in patent publication US8580788B2, “Opioid antagonists” (Adolor Corporation, priority 2005, dated 2013).

What was measured:
[1] = target: T1, cloned human μ opioid receptor (Homo sapiens (Human), UniProt P35372); assay: [3H]diprenorphine receptor binding, μ opioid receptor; conditions: inhibition of [3H]diprenorphine binding; Cheng-Prusoff correction of IC50
Experimental: (§1) IC50 values were obtained by nonlinear analysis of the data using GraphPad Prism version 3.00 for Windows (GraphPad Software, San Diego). Ki values were obtained by Cheng-Prusoff corrections of IC50 values.
(§2) The receptor binding method (DeHaven and DeHaven-Hudkins, 1998) was a modification of the method of Raynor et al. (1994). After dilution in buffer A and homogenization as before, membrane proteins (10-80 μg) in 250 μL were added to mixtures containing test compound and [^3H]diprenorphine (0.5 to 1.0 nM, 40,000 to 50,000 dpm) in 250 μL of buffer A in 96-well deep-well polystyrene titer plates (Beckman). After incubation at room temperature for one hour, the samples were filtered through GF/B filters that had been presoaked in a solution of 0.5% (w/v) polyethylenimine and 0.1% (w/v) bovine serum albumin in water. The filters were rinsed 4 times with 1 mL of cold 50 mM Tris HCl, pH 7.8 and radioactivity remaining on the filters determined by scintillation spectroscopy. Nonspecific binding was determined by the minimum values of the titration curves and was confirmed by separate assay wells containing 10 μM naloxone.
(§3) To determine the equilibrium dissociation constant for the inhibitors (Ki), radioligand bound (cpm) in the presence of various concentrations of test compounds was measured. The concentration to give half-maximal inhibition (EC50) of radioligand binding was determined from a best nonlinear regression fit to the following equation,
(§4) [formula] where Y is the amount of radioligand bound at each concentration of test compound, Bottom is the calculated amount of radioligand bound in the presence of an infinite concentration of test compound, Top is the calculated amount of radioligand bound in the absence of test compound, X is the logarithm of the concentration of test compound, and LogEC50 is the log of the concentration of test compound where the amount of radioligand bound is half-way between Top and Bottom. The nonlinear regression fit was performed using the program Prism® (GraphPad Software, San Diego, Calif.). The Ki values were then determined from the EC50 values by the following equation,
(§5) [formula] where [ligand] is the concentration of radioligand and Kd is the equilibrium dissociation constant for the radioligand.

[2] = target: cloned human δ opioid receptor (Homo sapiens (Human), UniProt P41143); assay: [3H]diprenorphine receptor binding, δ opioid receptor; conditions: inhibition of [3H]diprenorphine binding; Cheng-Prusoff correction of IC50
Sequence of cloned human δ opioid receptor (P41143 whole entry): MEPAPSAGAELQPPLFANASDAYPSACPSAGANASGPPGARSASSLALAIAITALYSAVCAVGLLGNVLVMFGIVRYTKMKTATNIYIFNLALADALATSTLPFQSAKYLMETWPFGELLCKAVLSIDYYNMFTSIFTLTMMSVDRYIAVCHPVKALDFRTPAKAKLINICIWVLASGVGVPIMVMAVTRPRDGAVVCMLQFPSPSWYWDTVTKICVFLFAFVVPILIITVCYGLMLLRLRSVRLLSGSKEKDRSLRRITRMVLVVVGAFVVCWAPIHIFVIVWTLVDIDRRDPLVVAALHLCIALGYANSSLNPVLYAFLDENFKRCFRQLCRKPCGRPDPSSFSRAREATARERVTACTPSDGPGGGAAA
Experimental: as §1, §2, §3, §4, §5

[3] = target: cloned human κ opioid receptor (Homo sapiens (Human), UniProt P41145); assay: [3H]diprenorphine receptor binding, κ opioid receptor; conditions: inhibition of [3H]diprenorphine binding; Cheng-Prusoff correction of IC50
Sequence of cloned human κ opioid receptor (P41145 whole entry): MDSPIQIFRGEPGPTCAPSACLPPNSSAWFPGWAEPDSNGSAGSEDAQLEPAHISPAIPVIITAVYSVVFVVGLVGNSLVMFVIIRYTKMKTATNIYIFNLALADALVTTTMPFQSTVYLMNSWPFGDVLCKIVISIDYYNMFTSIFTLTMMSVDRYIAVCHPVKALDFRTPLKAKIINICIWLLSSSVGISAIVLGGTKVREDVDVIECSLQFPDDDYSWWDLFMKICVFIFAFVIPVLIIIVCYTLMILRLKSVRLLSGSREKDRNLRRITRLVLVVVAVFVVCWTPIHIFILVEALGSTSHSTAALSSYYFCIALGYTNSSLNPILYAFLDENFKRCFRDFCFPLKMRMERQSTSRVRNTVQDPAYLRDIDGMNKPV
Experimental: as §1, §2, §3, §4, §5

[4] = target: T1, cloned human μ opioid receptor; assay: inhibition of agonist-stimulated [35S]GTPγS binding (in vitro antagonist activity), μ opioid receptor; format: biochemical; conditions: inhibition of loperamide (EC80)-stimulated [35S]GTPγS binding to membranes
Experimental: The potencies of the antagonists were assessed by their abilities to inhibit agonist-stimulated [^35S]GTPγS binding to membranes containing the cloned human μ, κ, or δ opioid receptors. The agonists used were loperamide for the μ opioid receptor.
To determine the IC50 value, which was the concentration to give half-maximal inhibition of agonist-stimulated [^35S]GTPγS binding, the amount of [^35S]GTPγS bound in the presence of a fixed concentration of agonist and various concentrations of antagonist was measured. The fixed concentration of agonist was the EC80 for the agonist, which was the concentration to give 80% of the relative maximum stimulation of [^35S]GTPγS binding. The IC50 value was determined from a best nonlinear regression fit of the data to the following equation,
[formula] where Y is the amount of [^35S]GTPγS bound at each concentration of antagonist, Bottom is the calculated amount of [^35S]GTPγS bound in the presence of an infinite concentration of antagonist, Top is the calculated amount of [^35S]GTPγS bound in the absence of added antagonist, X is the logarithm of the concentration of antagonist, and LogIC50 is the logarithm of the concentration of antagonist where the amount of [^35S]GTPγS bound is halfway between Bottom and Top. The nonlinear regression fit was performed using GraphPad Prism® version 3.00 for Windows (GraphPad Software, San Diego, Calif.).

T1 sequence (P35372 whole entry): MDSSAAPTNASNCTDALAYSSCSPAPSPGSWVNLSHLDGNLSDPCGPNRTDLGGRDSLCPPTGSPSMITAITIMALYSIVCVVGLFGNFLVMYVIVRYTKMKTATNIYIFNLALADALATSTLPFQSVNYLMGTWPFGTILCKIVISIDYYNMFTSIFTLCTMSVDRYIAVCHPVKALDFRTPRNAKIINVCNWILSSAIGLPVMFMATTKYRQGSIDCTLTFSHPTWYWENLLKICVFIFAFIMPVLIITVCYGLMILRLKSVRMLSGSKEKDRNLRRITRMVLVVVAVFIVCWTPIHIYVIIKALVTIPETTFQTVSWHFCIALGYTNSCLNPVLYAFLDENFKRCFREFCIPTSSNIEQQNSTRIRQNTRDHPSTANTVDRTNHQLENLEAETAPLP

Row | SMILES | Ki [1] [nM] | Ki [2] [nM] | Ki [3] [nM] | IC50 [4] [nM]
1 | C[C@H]1CN2C[C@H](c3ccccc3)CC[C@H]2C[C@@]1(C)c1cccc(O)c1 [Example 1, 3-((2R,3R,7S,9αS)-2,3-dimethyl-7-phenyl-octahydro-1H-quinolizin-2-yl)phenol] | 0.57 | 30 | 8.9 | 0.53
2 | C[C@H]1CN2CCN(CCc3ccccc3)C[C@H]2C[C@@]1(C)c1cccc(O)c1 [Example 2B, 3-((7R,8R,9αR)-7,8-dimethyl-2-phenethyl-octahydro-1H-pyrido[1,2-α]pyrazin-8-yl)phenol] | – | 242 | 112 | 21
3 | C[C@H]1CN2CCN(C(=O)c3ccccc3)C[C@H]2C[C@@]1(C)c1cccc(O)c1 [Example 2C, ((7R,8R,9αR)-8-(3-hydroxyphenyl)-7,8-dimethyl-hexahydro-1H-pyrido[1,2-α]pyrazin-2(6H)-yl)(phenyl)methanone] | 2 | 25 | 190 | 21
4 | C[C@H]1CN2CCN(Cc3ccccc3)C[C@H]2C[C@@]1(C)c1cccc(O)c1 [Example 2D, 3-((7R,8R,9αR)-2-benzyl-7,8-dimethyl-octahydro-1H-pyrido[1,2-α]pyrazin-8-yl)phenol] | 1.1 | 139 | 44 | 11
5 | C[C@H]1CN2C[C@H](c3ccccc3)NC[C@H]2C[C@@]1(C)c1cccc(O)c1 [Example 3A, 3-((3S,7R,8R,9αR)-7,8-dimethyl-3-phenyl-octahydro-1H-pyrido[1,2-α]pyrazin-8-yl)phenol] | 3.6 | 88 | 18 | 12
6 | C[C@H]1CN2C[C@H](c3ccccc3)N(C)C[C@H]2C[C@@]1(C)c1cccc(O)c1 [Example 3B, 3-((3S,7R,8R,9αR)-2,7,8-trimethyl-3-phenyl-octahydro-1H-pyrido[1,2-α]pyrazin-8-yl)phenol] | 3.3 | 716 | 12 | 26
7 | C[C@H]1CN2C[C@H](Cc3ccccc3)NC[C@H]2C[C@@]1(C)c1cccc(O)c1 [Example 4, 3-((3S,7R,8R,9αR)-3-benzyl-7,8-dimethyl-octahydro-1H-pyrido[1,2-α]pyrazin-8-yl)phenol] | 8.9 | 36 | 85 | 29
